Test: gradient 5% acetonitrile 3 min, to 50% in 2 min, to 85% in 15 min, held 3 min, 100 µL/min
Conditions: column: Zorbax Extend-C18 2.1 x 50 mm; eluents: water / acetonitrile, 0.1% formic acid
Procedure, shortened: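 Data were gathered over 3 months by HPLC coupled to a quadrupole time-of-flight mass spectrometer, operated in positive and negative ionization mode. Mixtures of ~100 pure standards ran on a Zorbax Extend-C18 column (2.1 × 50 mm, 1.8 μm) at 100 μL/min, with water and acetonitrile each containing 0.1% formic acid and dead and dwell volumes of 40 μL and 900 μL. Retention time was read from adduct peaks picked by computer and checked manually.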
`CCC(C)C(NC(=O)c1ccc(C(C)C)cc1)C(=O)Nc1nc2ccccc2[nH]1` (centres undefined) showed an RP-LC retention time of 856 s. `Cc1cc2nn(CC(=O)Nc3ccc4c(c3)OCCO4)c(=O)n2c(Nc2ccccc2C)n1` showed an RP-LC retention time of 908 s. With `CCN(CC)CCNC(=O)c1nnc(-c2ccc(S(=O)(=O)N3CCCC3)cc2)o1` the RP-LC retention time was 670 s. Compound `CC1CC(C)CN(S(=O)(=O)N2CCCC(C(=O)NCc3ccc(F)cc3)C2)C1` (centres undefined) has an RP-LC retention time of 1060 s. For `CC1=C(c2ccc(C)c(C)c2)S(=O)(=O)N=C1N1CCCN(C(=O)C2CCCO2)CC1` (centres undefined), the RP-LC retention time was 790 s. For `Cc1nc(-c2ccccc2)sc1C(=O)Nc1nc(-c2ccccc2)c(C)s1`, the RP-LC retention time was 1210 s. `Cc1nnc(N2CCCC(C(=O)NCc3ccc(F)cc3)C2)c2nn(-c3ccccc3)c(C)c12` (centres undefined) showed an RP-LC retention time of 720 s. `O=C(CSCc1ccccc1)NCC1CCN(C(=O)Nc2ccc(F)cc2)CC1` gave an RP-LC retention time of 770 s. `CCCCN1C(=O)C(C)(C(=O)Nc2cccc(F)c2)Oc2cccnc21` (centres undefined) gave an RP-LC retention time of 924 s. `O=C(Nc1sc2c(c1CN1CCN(c3ccccn3)CC1)CCCC2)c1ccco1` gave an RP-LC retention time of 671 s. `Cc1cccc(Sc2nccnc2N2CCC(C(=O)NC3CCCC3)CC2)c1` showed an RP-LC retention time of 1040 s. With `CCOC(=O)C1=C(C)NC(=O)NC1c1cn(-c2ccccc2)nc1-c1ccc(OCC)cc1` (centres undefined) the RP-LC retention time was 946 s. `COCC(=O)Nc1nnc(SCc2nnc(-c3ccc4c(c3)OCO4)o2)s1` gave an RP-LC retention time of 717 s. Compound `O=C(CC1CCN(C(=O)c2ccc3oc(C4CC4)nc3c2)CC1)NCc1ccccn1` has an RP-LC retention time of 605 s. `CSc1ncccc1C(=O)N1CCc2cc(-c3ccno3)ccc21` showed an RP-LC retention time of 871 s. For `CCOc1ccccc1N1CCN(S(=O)(=O)c2nn(C)cc2C(=O)NCC2CC2)CC1`, the RP-LC retention time was 973 s. `COc1c(C(=O)NC(C)C)sc2ccc(Cl)cc12` gave an RP-LC retention time of 1060 s. Work on `CCOC(=O)c1c(C)n(C)c2cc(Br)c(OC)cc12` yielded an RP-LC retention time of 1090 s. For `CCNC(=O)N1CCC(c2noc(-c3ccccn3)n2)C1` (centres undefined), the RP-LC retention time was 594 s. In the case of `COc1ccc(Cl)cc1NC(=O)Cn1c(=O)n(-c2ccc(F)cc2)c(=O)c2c1cc(C)n2C`, the RP-LC retention time is reported as 938 s. `COc1ccc2cc(OCC3(C(=O)O)CN(C(=O)c4ccc(F)cc4)C3)ccc2c1` showed an RP-LC retention time of 969 s. With `COc1ccc(NC(=O)c2cn3c(n2)CCCC3)cc1OC` the RP-LC retention time was 570 s. With `CCOc1ccccc1NC(=O)c1cnn(-c2ccc(Br)cc2)c1` the RP-LC retention time was 1120 s. For `CC1(C(=O)N2CC(F)(F)C[C@H]2c2nc(-c3ncccn3)no2)CC1`, the RP-LC retention time was 674 s. `COCCN(Cc1ccncc1)C(=O)c1ccc2nsnc2c1` showed an RP-LC retention time of 544 s. For `Cc1ccc(C)c(N2CCN(C(=O)Cn3c(=O)c4nncn4c4ncccc43)CC2)c1`, the RP-LC retention time was 790 s. Work on `O=C(NC1CC1)c1nc(C(=O)N2CCN(c3ccccc3Cl)CC2)cs1` yielded an RP-LC retention time of 881 s. Compound `COc1cccc(-c2[nH]ncc2CN2C[C@@H]3CCN(S(C)(=O)=O)C[C@]3(CF)C2)c1` has an RP-LC retention time of 599 s. Work on `O=C(Cn1c2c(c(=O)n(C3CCCCC3)c1=O)CCC2)NCc1ccco1` yielded an RP-LC retention time of 764 s. `O=C1CC(/C=C/c2ccccc2)Cc2nc(N3CCN(Cc4ccc5c(c4)OCO5)CC3)ncc21` (centres undefined) gave an RP-LC retention time of 782 s. With `CCc1noc(C2(NC(=O)/C=C/c3ccccc3)CCCCC2)n1` the RP-LC retention time was 961 s. With `CC(C)CN1CCn2cc(S(=O)(=O)NCc3ccccc3Cl)cc2C1=O` the RP-LC retention time was 818 s. Work on `O=C(Cn1ccnc1-c1ccnc(N2CCSCC2)c1)NCc1ccc(F)cc1` yielded an RP-LC retention time of 653 s. For `Cc1cc(Cl)ccc1OCc1nc(-c2ccc3c(c2)ncn3CCC(=O)N2CCCCC2)no1`, the RP-LC retention time was 956 s. Compound `COc1ccccc1C(=O)N1CCN(c2cnn3c(C4CC4)nnc3c2)CC1` has an RP-LC retention time of 623 s. `c1ccc(-c2nnc(-c3nc(NCCCN4CCC(N5CCCCC5)CC4)c4ccccc4n3)o2)cc1` gave an RP-LC retention time of 550 s. With `COc1cccc(Cn2cnc3c(-c4cccc(F)c4)csc3c2=O)c1` the RP-LC retention time was 1050 s. `CCOC(=O)C(=O)N1CCN(c2ncnc3c2nnn3C)CC1` gave an RP-LC retention time of 643 s. In the case of `O=C(NCc1ccccc1F)c1ccc2ncnc(N3CCCC3)c2c1`, the RP-LC retention time is reported as 623 s. Work on `Cc1cc(N2CCN(C)CC2)nc(N2CCN(C(=O)c3ccc(Br)cc3)CC2)n1` yielded an RP-LC retention time of 557 s. In the case of `CCCNc1cc(N2CCC(CCC(=O)N3CCN(c4ncccn4)CC3)CC2)ncn1`, the RP-LC retention time is reported as 632 s. `Cc1cccc(N2CCN(C(=O)C3CCc4sc(C(=O)N(C)C)cc4C3)CC2)c1` (centres undefined) showed an RP-LC retention time of 867 s. With `CSc1ccc(CNC(=O)C2CCCN(c3nc4c(s3)c(C)nn4-c3ccccc3)C2)cc1` (centres undefined) the RP-LC retention time was 1150 s. `O=C(Cn1nc(Cc2ccncc2)c2ccccc2c1=O)Nc1ccc(Cl)cn1` showed an RP-LC retention time of 618 s. `Cc1cccc(Cl)c1NC(=O)CN1C(=O)NC2(CCC(C)CC2)C1=O` (centres undefined) gave an RP-LC retention time of 805 s. `Cc1ccc(-c2[nH]ncc2CN2CCC3(CCC3O)CC2)cc1` (centres undefined) gave an RP-LC retention time of 577 s. `C=CCn1c(=O)c2ccccc2n(Cc2nc(-c3ccc(F)cc3)no2)c1=O` gave an RP-LC retention time of 1050 s. `COc1ccc(-c2noc(-c3nnn4c3COC(c3ccc(C)cc3C)C4)n2)cc1` (centres undefined) gave an RP-LC retention time of 1250 s. With `CC1CCCN(CC2CCN(S(=O)(=O)Cc3ccc(Cl)cc3)CC2)C1` (centres undefined) the RP-LC retention time was 690 s. In the case of `Cc1cc2nn(CC(=O)N3CCC(C)CC3)c(=O)n2c(-c2ccc(F)cc2)n1`, the RP-LC retention time is reported as 816 s. `CNC(=O)c1cnn(-c2ccc(-c3nc(C(C)C)no3)cn2)c1C` gave an RP-LC retention time of 780 s. Compound `O=C(Nc1ccccc1)C1CCCN(c2nc3ccsc3c(=O)n2Cc2ccc(F)cc2)C1` (centres undefined) has an RP-LC retention time of 971 s. `O=C(c1ccco1)N1CCc2cc(-c3csc(C4CC4)n3)ccc21` showed an RP-LC retention time of 1070 s. In the case of `COc1cc(CN2CCC[C@H]2c2nc(C3CCOCC3)n[nH]2)cc(OC)c1`, the RP-LC retention time is reported as 593 s. `CCC1CN(C(=O)Nc2cccc(OC)c2)c2ccccc2O1` (centres undefined) gave an RP-LC retention time of 945 s. In the case of `CCOc1ccc(C(=O)N2CCC3(CC2)NC(=O)c2ccc(F)cc2N3C)cc1`, the RP-LC retention time is reported as 767 s. For `CS(=O)(=O)N1CCC(OC2CCN(C(=O)c3cccnc3)CC2)CC1`, the RP-LC retention time was 583 s. `Cc1cc(C(=O)Nc2nc3c(s2)CN(C(=O)c2nc4ccccc4s2)CC3)no1` showed an RP-LC retention time of 870 s. `O=C(NC1CCCCC1)c1cccc(Nc2c(-c3ccc(Cl)cc3)nc3cnccn23)c1` gave an RP-LC retention time of 935 s. In the case of `CC(C)n1cnc(S(=O)(=O)N2CCCC(C(=O)NCc3ccccc3)C2)c1` (centres undefined), the RP-LC retention time is reported as 702 s. In the case of `O=C(O)c1nnn(-c2cccc(Cl)c2)c1C(F)(F)F`, the RP-LC retention time is reported as 806 s. `Cc1ccc(C)c(NC(=O)Cn2cnc3nc(N4CCC(C(=O)NC5CC5)CC4)sc3c2=O)c1` showed an RP-LC retention time of 713 s. In the case of `CCSc1nnc(-c2nn(C)c3c2CN(C(=O)Nc2ccc(OC)cc2)CC3)n1CC`, the RP-LC retention time is reported as 809 s. For `Cc1cc(=O)n(CC(=O)Nc2ccccc2C)c(N2CCOCC2)n1`, the RP-LC retention time was 657 s. `CCc1ccc(CNC(=O)Cc2c(C(=O)O)c(C)cn2CC)cc1` showed an RP-LC retention time of 842 s. Compound `CCCCCCCNC(=O)C1CCCN(c2ncc(-c3ccc(F)cc3)cn2)C1` (centres undefined) has an RP-LC retention time of 1260 s. `CCCNC(=O)c1cn(-c2ncccc2-c2nc(-c3ccccc3)no2)cn1` gave an RP-LC retention time of 823 s. With `CN1C(=O)CCc2cc(NC(=O)c3n[nH]c4ccccc34)ccc21` the RP-LC retention time was 730 s. `COc1ccc(-c2ccc(N3CCN(c4ccccn4)CC3)nn2)cc1S(=O)(=O)N1CCOCC1` showed an RP-LC retention time of 572 s. With `CCc1cc(=O)n(CC(=O)Nc2cccc(Br)c2)c(N2CCOCC2)n1` the RP-LC retention time was 831 s. `Cc1nn(CC(=O)NCc2ccccn2)c(=O)c2nc(-c3ccccc3)sc12` showed an RP-LC retention time of 633 s. For `Cc1ccc(NC(=O)NCC2CCOCC2)cc1`, the RP-LC retention time was 704 s. `COc1ccc(Nc2nc(C(=O)N3c4ccccc4CC3C)cs2)cc1OC` (centres undefined) showed an RP-LC retention time of 854 s. With `Cc1c(S(=O)(=O)NCc2ccccc2Cl)c(C)n(C)c1-c1nnc(C2CCC2)o1` the RP-LC retention time was 1000 s. Compound `Cc1cc(S(=O)(=O)N2CCN(C3CCN(C)C3=O)CC2)ccc1Cl` (centres undefined) has an RP-LC retention time of 595 s. `Cc1cc(C(=O)NCc2ccc3c(c2)OCO3)c2ccccc2n1` gave an RP-LC retention time of 637 s. For `COc1ccc(-c2nc3cc(C)ccn3c2NC(=O)c2ccc(Cl)cc2Cl)cc1`, the RP-LC retention time was 753 s. For `CN(C1CCc2nn(CC3CC3)c(=O)n2CC1)S(=O)(=O)c1ccccc1C(F)(F)F` (centres undefined), the RP-LC retention time was 831 s. Compound `COc1ccc(C(=O)Nc2nc(-c3ccc4c(c3)NC(=O)CO4)c(C)s2)cc1` has an RP-LC retention time of 881 s. `Cc1cc2c(c(=O)n(-c3ccccc3)c(=O)n2CC(=O)Nc2ccc(Br)cc2)n1C` gave an RP-LC retention time of 877 s. With `CC(NC(=O)c1ccco1)c1nc2ccccc2n1CC(=O)N(C)c1ccccc1` (centres undefined) the RP-LC retention time was 694 s. With `COC(=O)C1=CN(c2cc(OC)cc(OC)c2)c2ccccc2S1(=O)=O` the RP-LC retention time was 848 s. Work on `Cc1ccc(NC(=O)c2cc(C)n3nc(C)cc3n2)cc1` yielded an RP-LC retention time of 994 s. For `N#Cc1cc2c(nc1SCC(=O)Nc1nccs1)CCCCC2`, the RP-LC retention time was 871 s. In the case of `Cc1cc(C)cc(NC(=O)c2c(O)c3cccnc3n(-c3ccccc3)c2=O)c1`, the RP-LC retention time is reported as 1430 s. Compound `Cc1c(F)cccc1NC(=O)N1CC(Cc2nncn2C(C)C)C1` has an RP-LC retention time of 659 s. With `Cc1ncc2c(SCC(=O)Nc3ccc(Br)cc3)ncnc2n1` the RP-LC retention time was 578 s. With `Cc1c(C)n(-c2ccccc2)c2ncn(CC(=O)NC(C)Cc3ccco3)c(=O)c12` (centres undefined) the RP-LC retention time was 848 s. In the case of `O=C(Nc1ccccc1F)N1CCC(n2cnc3ccc(Cl)cc3c2=O)CC1`, the RP-LC retention time is reported as 806 s.
